The term pIC50 denotes −log10 of the IC50, conventionally taken in molar units.

Experiment [1] addresses T1, acetylcholine receptor (rat cerebral membranes) (Rattus norvegicus, UniProt P09483+P12390).
T1 construct: Synaptic membranes were prepared by homogenizing the cortical tissue; from tissue; host or cells: cerebral cortex synaptic membranes of male Sprague-Dawley rats
Kind of experiment: 3H-MCC (methylcarbamylcholine) displacement from rat cerebral membranes. As to conditions: 3H-MCC displacement. Type of experiment: binding.

For experiment [2], the target named is T1, acetylcholine receptor (rat cerebral membranes). Kind of experiment: 3H-cyt (cytisine) displacement from rat cerebral membranes. Type of experiment: binding. The settings on record: 3H-cyt displacement.
The target in experiment [3] is acetylcholine receptor (rat cerebral membranes). Type of experiment: binding. The settings on record: 3H-QNB displacement.
Experiment [4] has as its target T1, acetylcholine receptor (rat cerebral membranes). Kind of experiment: 3H-nicotine displacement from rat cerebral membranes. Type of experiment: binding. The settings on record: 3H-nicotine (1.9 nM) displacement, atropine 3 μM.
Experiment [5] relates to rats with unilateral 6-hydroxydopamine lesions of the nigro-striatal dopamine pathway. Type of experiment: in vivo, rat. The procedure:
The effects of invention compounds on turning behavior of rats with unilateral 6-hydroxydopamine lesions in the striatum were evaluated using the procedure of Ungerstedt and Arbutknott Brain Res. 24:485-493 (1970). Rats were injected with desmethylimipramine (25 mg/kg i.p.) and pargyline (75 mg/kg i.p.) approximately 30 minutes prior to 6-hydroxydopamine infusion into the substantia nigra. Results reported in the Table are measured as the maximal rotation per 15-min interval toward the lesioned side of the striatum.

A further experiment deals with rat hippocampus slices. The experiment is classed as cell-based. The procedure: (§1) Measurement of ^3 H-dopamine release from rat striatal slices was performed according to the method of Sacaan et al. (J. Neurochem. 59:245 (1992)). Male Sprague-Dawley rats (250-300 g) were decapitated and the striata dissected quickly on a cold glass surface. The tissue was chopped to a thickness of 300 μm with a McIlwain tissue chopper. After chopping again at right angles the tissue was dispersed and incubated for 10 min. at 37° C. in oxygenated Kreb's buffer. ^3 H-Dopamine (40 Ci/mmol, NEN-Dupont, Boston, Mass.) was added (50 nM) and the tissue was incubated for 30 min. in Kreb's buffer containing 10 μM pargyline and 0.5 mM ascorbic acid. Aliquots of the minced tissue were then transferred to chambers of a Brandel Superfusion system in which the tissue was supported on Whatman GF/B filter discs. The tissue was then superfused with buffer at a constant flow rate of 0.3 ml/min. by means of a Brandel peristaltic pump. The perfusate was collected in plastic scintillation vials in 3-min. fractions, and the radioactivity was estimated by scintillation spectrophotometry. The superfusate for the first 120 min. was discarded. After two baseline fractions had been collected, the superfusion buffer was switched to fresh buffer with or without compound of interest. At the end of the experiment the filter and the tissue were removed, and the ^3 H-dopamine content was estimated after extraction into scintillation fluid. The fractional efflux of tritium was estimated as the amount of radioactivity in the perfusate fraction relative to the total amount in the tissue.
(§2) Following essentially the same procedure as set forth in the preceding paragraph, the amount of ^3 H-norepinephrine released from rat hippocampus and thalamus slices superfused with buffer containing (or lacking) compounds of interest was also measured.
(§3) The results of studies of the effects of an invention compound (as compared to the effect of nicotine and cytisine) on the release of neurotransmitters from rat brain slices are presented in Table II. The results presented in the Table are expressed as the percent fractional release.

Another experiment has as its system rat thalamus slices. The experiment is classed as cell-based. The procedure: as §1, §2, §3
Experiment [6] relates to haloperidol-induced catalepsy in rats. The experiment in a line: Haloperidol-induced catalepsy model in rats. The experiment is classed as in vivo, rat. The settings on record: s.c.; for Reduction in catalepsy (maximum): haloperidol 2 mg/kg i.p., vs haloperidol alone.
The subject of the next experiment is tail flick in rats. The experiment is classed as in vivo, rat. The procedure: The effects of invention compounds on latency in the time between stimulus application and tail flick in rats were evaluated using the procedure of D'Amour and Smith, J. Pharmacol. Exp. Ther. 72:74-79 (1941). Male rats (150-200g; Harlan, San Diego, Calif.) were acclimated to investigator's handling by taking two-to-three tail-flick latencies. The animals were held by hand such that the tail is placed in the groove of the Tail-Flick meter (IITC Life Sciences, Woodland Hill, Calif., Model 33). The light was focused 3-4 cm from the tip of the tail by a foot-operated switch. The intensity of the incident beam was adjusted to give baseline latencies in the range of 1-4 seconds. Groups of 5-6 rates were used in each treatment. The tail-flick latencies were recorded to the nearest 0.1 seconds and a cut-off time of 10 seconds was established to prevent thermal injury. The results of one such study are shown in Table V. Results presented in the Table are expressed as the percent of the maximum latency to remove the tail from the light beam. Maximum latency is 10 seconds.

A further experiment deals with rat striatal slices. Type of experiment: cell-based. Here is the method:
as §1, §3

Each structure is given as a SMILES string. pIC50: −log10 of the molar value. Read-outs that look alike come from different tables or passages of the source.

T1 sequence (P09483 31-630): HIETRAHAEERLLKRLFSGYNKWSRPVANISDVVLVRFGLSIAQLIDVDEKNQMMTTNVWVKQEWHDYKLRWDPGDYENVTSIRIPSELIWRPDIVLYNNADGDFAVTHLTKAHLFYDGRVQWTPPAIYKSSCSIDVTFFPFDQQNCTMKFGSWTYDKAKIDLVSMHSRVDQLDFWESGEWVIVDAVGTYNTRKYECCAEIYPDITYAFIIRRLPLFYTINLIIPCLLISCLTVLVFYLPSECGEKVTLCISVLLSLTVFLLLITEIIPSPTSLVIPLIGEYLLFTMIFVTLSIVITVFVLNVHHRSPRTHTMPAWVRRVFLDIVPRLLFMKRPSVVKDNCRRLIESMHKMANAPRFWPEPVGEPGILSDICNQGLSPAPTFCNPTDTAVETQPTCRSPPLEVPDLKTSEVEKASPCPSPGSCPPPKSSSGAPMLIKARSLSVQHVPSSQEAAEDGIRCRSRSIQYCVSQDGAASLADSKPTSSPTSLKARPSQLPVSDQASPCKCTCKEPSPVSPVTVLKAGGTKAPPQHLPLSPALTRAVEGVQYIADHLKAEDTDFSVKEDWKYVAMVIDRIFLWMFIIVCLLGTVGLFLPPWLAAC
T1 sequence (P12390 25-500): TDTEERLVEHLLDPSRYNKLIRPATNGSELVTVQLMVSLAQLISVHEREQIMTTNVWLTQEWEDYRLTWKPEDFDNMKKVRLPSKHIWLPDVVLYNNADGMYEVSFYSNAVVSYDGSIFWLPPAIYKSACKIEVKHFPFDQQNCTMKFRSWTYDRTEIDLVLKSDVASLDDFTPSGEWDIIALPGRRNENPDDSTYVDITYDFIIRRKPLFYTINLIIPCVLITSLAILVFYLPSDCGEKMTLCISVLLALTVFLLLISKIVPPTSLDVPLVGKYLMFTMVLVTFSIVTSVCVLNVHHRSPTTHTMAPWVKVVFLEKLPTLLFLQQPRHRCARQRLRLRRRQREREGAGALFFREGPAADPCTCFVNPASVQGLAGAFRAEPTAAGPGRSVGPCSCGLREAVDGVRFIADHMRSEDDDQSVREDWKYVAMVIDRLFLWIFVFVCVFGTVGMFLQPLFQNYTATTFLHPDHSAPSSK

For the molecule `COc1cc2c(cn1)C1C(CC2)CCN1C` (centres unmarked), the pIC50 was 5.26 in experiment [1], 4.56 in experiment [2], 5.05 in experiment [3] and 4.97 in experiment [4].
For the molecule `c1cc2c(cn1)C1NCCC1CO2` (centres unmarked), the pIC50 in [1] is 6.21; in experiment [2], 5.70; in experiment [4] it was 6.29.
For `COc1cc2c(cn1)C1NCCC1CC2` (centres unmarked), the “Range of activity (maximal rotation per 15-min interval toward the lesioned side of the striatum)” value in experiment [5] (10 mg/kg, s.c.) is recorded as 9-50 rotation per 15-min interval. In addition, the “Turning towards the 6-hydroxydopamine-lesioned side (in words)” value in experiment [5] (10 mg/kg, s.c.) is given as “induces turning towards the 6-hydroxydopamine-lesioned side of the rat striatum”. In addition, the “3H-norepinephrine hippocampus, percent fractional release” value with rat hippocampus slices (300 μM) was found to be 0.69%. Moreover, the “3H-norepinephrine thalamus, percent fractional release” value with rat thalamus slices (300 μM) came to 2.2%. For the same molecule, the “Cataleptogenic effect of haloperidol in rats (in words)” value in experiment [6] (3 mg/kg) is listed as “reduces the cataleptogenic effect of haloperidol in rats”. Also, the “Reduction in catalepsy (maximum)” value in [6] (3 mg/kg) is listed as 34%. Moreover, the negative logarithm of the IC50 (pIC50) in experiment [1] is 6.10; in experiment [2] it was 5.27; in [3], 5.22; in experiment [4] it was 5.72. The same molecule displayed a Duration of effect in the experiment with tail flick in rats (30 mg/kg, p.o.) of more than 180 min. The “Latency between application of stimulus and tail-flick response (in words)” value in the experiment on tail flick in rats (30 mg/kg, p.o., as compared to nicotine) was “increased the latency period, as compared to nicotine”. In the experiment on tail flick in rats (30 mg/kg, p.o., maximum latency 10 seconds), the “% maximum possible effect” value turned out to be 52%. Also, the “Duration of effect versus morphine (in words)” value in the experiment with tail flick in rats (rat, in vivo) is on record as “longer duration than the effect of morphine”. Also, the “3H-dopamine striatum, percent fractional release” value in the experiment with rat striatal slices (300 μM) worked out at 2.2%. Further, in the experiment with rat striatal slices (striatum (dopamine), hippocampus and thalamus (norepinephrine)), the “Release of catecholamines from rat brain slices (in words)” value is “selectively induces release of catecholamines in different brain regions”.
As for `CC(N)Cc1ccccc1` (centres unmarked) [AMPHETAMINE, reference compound], in [5] (5 mg/kg, s.c.), the “Range of activity (maximal rotation per 15-min interval toward the lesioned side of the striatum)” value is reported as 50-200 rotation per 15-min interval.
On to `O=c1cccc2n1C[C@@H]1CNC[C@H]2C1` [CYTISINE, cytisine], for which the “3H-norepinephrine hippocampus, percent fractional release” value with rat hippocampus slices (100 μM) is 4.3%. Also, the “3H-norepinephrine thalamus, percent fractional release” value in the experiment with rat thalamus slices (100 μM) is 2.9%. For the same molecule, the “3H-dopamine striatum, percent fractional release” value in the experiment with rat striatal slices (100 μM) is on record as 0.96%.
Regarding `CN1CC[C@]23c4c5ccc(O)c4O[C@H]2[C@@H](O)C=C[C@H]3[C@H]1C5` [Morphine, reference compound], the “% maximum possible effect” value in the experiment with tail flick in rats (2 mg/kg, s.c., maximum latency 10 seconds) is listed as 100%.
As to `CN1CCCC1c1cccnc1` (centres unmarked) [NICOTINE, nicotine, reference compound], the “Range of activity (maximal rotation per 15-min interval toward the lesioned side of the striatum)” value in [5] (rat, in vivo) is reported as 6-50. For the same molecule, in the experiment with rat hippocampus slices, the “3H-norepinephrine hippocampus, percent fractional release” value came out at 4.1. Also, in the experiment on rat thalamus slices, the “3H-norepinephrine thalamus, percent fractional release” value is reported as 2.9. In addition, in [6] (2 mg/kg), the “Reduction in catalepsy (maximum)” value was 21%. In the experiment on tail flick in rats (rat, in vivo), the “% maximum possible effect” value was 38% and the Duration of effect came out at 60 min. Also, the “3H-dopamine striatum, percent fractional release” value in the experiment on rat striatal slices is on record as 1.80.

(Values after patent publication US5567710A, “Polycyclic fused ring modulators of acetylcholine receptors” (SIBIA Neurosciences, Inc., priority 1994, dated 1996).)
